Test results taken from patent US6426068B1, “Therapeutic uses of heterologous superoxide dismutase (HSD), and method for selecting said HSD” (Fractales Biotech, priority 1998, dated 2002).

Experiments:
[1] = system: inflammation induced with carrageenans; assay: Rat model of inflammation induced with carrageenans; type: in vivo
[2] = system: inflammation induced with adriamycin; assay: Rat model of inflammation induced with adriamycin; type: in vivo
Mn—SOD [3] = assay: Endogenous SOD (dismutase) activity of U937 cells after exogenous SOD; type: cell-based, human; settings: SOD 30 U/ml, FIG. 2
Protocol: U937 cells, untreated or treated with HIV-Tat protein, in the presence or absence of the abovementioned SODs, are lysed in a detergent buffer comprising: 10 mM Tris-HCl pH 7.4, 0.1% of SDS, 1% of Nonidet P-40, 10 μg/ml of leupeptin, 100 μg/ml of PMSF and 2 μg/ml of aprotinin, by heating at 85° C. for 5 min. The lysate is then briefly sonicated (3×30 sec).
The total superoxide dismutase activity is measured on the sonicated lysates obtained as described above by its capacity to inhibit the reduction of ferrocytochrome c by the superoxide radicals produced by the xanthin oxidase/xanthine system (McCord. J. M., 1969, J. Biol. Chem. 244, 6049). One unit of superoxide dismutase is defined as the amount which inhibits 50% of the reduction of cytochrome c at room temperature and at pH 7.8.

[4] = system: glutathione peroxidase (GPx), Mn—SOD, inducible NO synthase (iNOs); assay: Immuno-redox activity of HSD1/anti-HSD1 immune complexes in U937 and U1 cells; settings: noninfected U937 and U1 cells; HSD1 10 μg/ml (30 U/ml), anti-HSD1 antibodies 10 μg/ml; FIG. 16
Protocol: U937 cells which are chronically infected with HIV-1 (U1 cells), and which have a low p24 production level (<250 pg/10^5 cells/ml in a 3-day supernatant) are cultured in an RPMI medium supplemented with L-glutamine, penicillin, streptomycin and foetal calf serum at 10% (Gibco products). They are used for the production of p24, and to evaluate apoptosis.

human macrophages [5] = assay: Apoptosis of human macrophages with β-amyloid or MPTP; type: cell-based; settings: 10 μg/ml, 48 hours, FIGS. 12 and 13
human macrophages [6] = assay: TNF-α production by human macrophages with β-amyloid or MPTP; settings: 10 μg/ml, 48 hours, FIGS. 12 and 13
Protocol: The CLCs are isolated from 23 healthy individuals, under the same conditions as those set out above. The adherent cell populations are obtained by incubating the CLCs (1×10^7 cells/ml) either in Petri dishes (Nunc) or in 6-well culture plates (Nunc) for 30 min at 37° C. in an RPMI 1640 medium supplemented with foetal calf serum at 10% (v/v) . The monocytes are then recovered by scraping the plates after adding a cold solution of PBS containing 1 mM EDTA. Cell preparations which comprise more than 85% of viable macrophages are estimated by Trypan blue exclusion and staining with a nonspecific esterase.
The macrophages are cultured at a final concentration of 2×10^6 cells/ml in 12- or 24-well plastic culture plates (Nunc) and in an Iscove medium supplemented with 100 U/ml of penicillin, 100 μg/ml of streptomycin and 5% of foetal calf serum.
The cells are incubated for 48 hours at 37° C. in a humid atmosphere (100%) containing 95% air and 5% CO2, in the presence of absence of 10 μg/ml of β-amyloid or MPTP.
The cell supernatants are recovered for measuring the TNF and the nitrites, while apoptosis is evaluated directly on the cells.

Mn—SOD [7] = assay: Endogenous SOD expression in U937 cells (SDS-PAGE / immunoblot); type: cell-based, human; settings: HIV-Tat activated U937 cells (10 μg/ml Tat); SOD 30 U/ml, 24 hours; FIG. 1
[8] = system: glutathione peroxidase (Gpx); assay: Glutathione peroxidase transcription in U937 cells (RT-PCR); settings: FIG. 3
Protocol: The human promonocytic leukaemia cell line U937 is cultured at a final concentration of 2×10^5 cells/ml in an Iscove medium enriched with 100 U/ml of penicillin, 100 μg/ml of streptomycin and 5% of foetal calf serum, in the presence (activated) or absence (control) of 10 μg/ml of HIV-Tat protein.
After stimulation and treatment with various sources and concentrations of SOD, the U937 cells are harvested in a phosphate-buffered cold physiological saline, and counted. The total RNA is extracted by standard techniques (Chomczynski. P., 1987, Anal. Biochem. 162, 156), in 1 ml of TRIzol reagent (Life Technologies ≠15596), according to the manufacturer's instructions. After its extraction, the RNA is precipitated with isopropyl alcohol, and the pellets are washed in 70% ethanol and air dried. The dried pellets are resuspended in 50 μl of 0.5 mM EDTA, pH 8, and quantified by spectrophotometry. […]
The amplification program comprises: five cycles comprising 60 sec. at 92° C., 60 sec. at 58° C. and 60 sec. at 74° C., followed by 25 cycles comprising 30 sec. at 92° C., 60 sec. at 60° C. and 60 sec. at 74° C., and to finish, the temperature is kept at 74° C. for another 3 minutes. Positive PCR amplifications are then determined by an electrophoresis on 1.2% agarose gel in 0.5×TAE buffer. […]

Molecule	anti-inflammatory activity (rank order of SODs) [1]	anti-inflammatory activity (rank order of SODs) [2]	further results
rat Cu—SOD: rat (homologous) Cu—SOD	significant pro-inflammatory activity	totally inactive	–
bovine Cu—SOD: Cu/Zn—SOD of bovine origin	Mn—SOD of E. coli>bovine Cu—SOD>human Cu—SOD>yeast Cu—SOD>plant Cu—SOD	bovine Cu—SOD>Mn—SOD of E. coli	–
HSD1: bovine SOD (heterologous), Sigma, St Louis, Mo.	–	–	lifting of HIV-Tat protein-induced inhibition of Mn—SOD expression (endogenous SOD activity) (Mn—SOD [3]): can be lifted; expression of glutathione peroxidase (GPx), Mn—SOD and inducible NO synthase (iNOs) [4]: stimulate the expression
human Cu—SOD: human Cu—SOD	Mn—SOD of E. coli>bovine Cu—SOD>human Cu—SOD>yeast Cu—SOD>plant Cu—SOD	–	–
CN1CC=C(c2ccccc2)CC1 [MPTP]	–	–	death of macrophages by apoptosis (human macrophages [5]): induce their death by apoptosis; production of TNF-α by macrophages (human macrophages [6]): stimulate the production of TNF-α
β-amyloid	–	–	death of macrophages by apoptosis (human macrophages [5]): induce their death by apoptosis; production of TNF-α by macrophages (human macrophages [6]): stimulate the production of TNF-α
HuSOD: recombinant human Cu/Zn SOD, homologous comparator	–	–	Mn—SOD expression (Mn—SOD [7]): remains undetectable; lifting of HIV-Tat protein-induced inhibition of Mn—SOD expression (endogenous SOD activity) (Mn—SOD [3]): not lifted; Gpx transcription [8]: does not enable it
Mn—SOD of E. coli: manganese SOD of E. coli (protein, UniProt P00448 2-206, looked up) Superoxide dismutase [Mn]: SYTLPSLPYAYDALEPHFDKQTMEIHHTKHHQTYVNNANAALESLPEFANLPVEELITKLDQLPADKKTVLRNNAGGHANHSLFWKGLKKGTTLQGDLKAAIERDFGSVDNFKAEFEKAAASRFGSGWAWLVLKGDKLAVVSTANQDSPLMGEAISGASGFPIMGLDVWEHAYYLKFQNRRPDYIKEFWNVVNWDEAAARFAAKK	Mn—SOD of E. coli>bovine Cu—SOD>human Cu—SOD>yeast Cu—SOD>plant Cu—SOD	bovine Cu—SOD>Mn—SOD of E. coli	–
yeast Cu—SOD: yeast Cu—SOD (protein, UniProt P00445 2-154, looked up) Superoxide dismutase [Cu-Zn]: VQAVAVLKGDAGVSGVVKFEQASESEPTTVSYEIAGNSPNAERGFHIHEFGDATNGCVSAGPHFNPFKKTHGAPTDEVRHVGDMGNVKTDENGVAKGSFKDSLIKLIGPTSVVGRSVVIHAGQDDLGKGDTEESLKTGNAGPRPACGVIGLTN	Mn—SOD of E. coli>bovine Cu—SOD>human Cu—SOD>yeast Cu—SOD>plant Cu—SOD	generates a pro-inflammatory response	–
